Laboratory results reported in the supplement of paper PMC6045584.
± gives the standard deviation of the averaged measurements.

Experiments:
MLN-4924 = compound: NS(=O)(=O)OC[C@@H]1C[C@@H](n2ccc3c(N[C@H]4CCc5ccccc54)ncnc32)C[C@@H]1O [MLN-4924]; assay: surviving fraction relative to DMSO-only wells; higher = less growth inhibition; details: exposure time: 5 days
How it was run: (§1)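 Inhibitors at 0.5, 1, 5, 10, 50, 100, 500 and 1000 nM were applied continuously for five days to tumour cell lines seeded in log phase at 250–500 cells per well in 384-well plates 24 hours earlier. Viability was measured by CellTiter-Glo luminescence and expressed as surviving fraction relative to the median of DMSO-only wells. Luminescence was taken after 10 minutes at room temperature.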

[1] = compound: C[C@@H](Oc1cc(-c2cnn(C3CCNCC3)c2)cnc1N)c1c(Cl)ccc(F)c1Cl; assay: as above; details: exposure time: 5 days
How it was run: as §1

| Test System | surviving fraction (MLN-4924; 0.5 nM) | surviving fraction (MLN-4924; 1 nM) | surviving fraction (MLN-4924; 5 nM) | surviving fraction (MLN-4924; 10 nM) | surviving fraction (MLN-4924; 50 nM) | surviving fraction (MLN-4924; 100 nM) | surviving fraction (MLN-4924; 500 nM) | surviving fraction (MLN-4924; 1000 nM) | surviving fraction ([1]; 0.5 nM) | surviving fraction ([1]; 1 nM) | surviving fraction ([1]; 5 nM) | surviving fraction ([1]; 50 nM) | surviving fraction ([1]; 100 nM) | surviving fraction ([1]; 500 nM) | surviving fraction ([1]; 1000 nM) | surviving fraction ([1]; 10 nM) |
| --- | --- | --- | --- | --- | --- | --- | --- | --- | --- | --- | --- | --- | --- | --- | --- | --- |
| G292 BONE | 1.02 ± 0.031 | 1 ± 0.048 | 1.04 ± 0.017 | 1.03 ± 0.054 | 0.909 ± 0.049 | 0.623 ± 0.068 | 0.295 ± 0.011 | 0.266 ± 0.019 | 0.961 ± 0.025 | 0.971 ± 0.032 | 0.931 ± 0.088 | 0.948 ± 0.038 | 0.871 ± 0.011 | 0.564 ± 0.031 | 0.38 ± 0.01 |  |
| HCC38 BREAST | 1.35 ± 0.069 | 1.48 ± 0.14 | 1.02 ± 0.14 | 1.22 ± 0.18 | 0.624 ± 0.064 | 0.269 ± 0.025 | 0.0757 ± 0.0075 | 0.0803 ± 0.013 | 0.862 ± 0.14 |  | 0.928 ± 0.18 | 1.09 ± 0.22 | 1.13 ± 0.23 |  | 0.66 ± 0.14 | 0.928 ± 0.16 |
| HCC70 BREAST | 1.06 ± 0.14 | 1.09 ± 0.06 | 1.07 ± 0.066 | 0.96 ± 0.071 | 0.582 ± 0.041 | 0.41 ± 0.029 | 0.14 ± 0.037 | 0.103 ± 0.014 |  | 0.95 ± 0.095 |  |  | 1.14 ± 0.12 | 0.964 ± 0.04 | 0.736 ± 0.034 |  |
| HMLE3 BREAST | 1.04 ± 0.046 | 1.08 ± 0.031 | 1.07 ± 0.016 | 1.25 ± 0.019 | 1.07 ± 0.016 | 0.698 ± 0.024 | 0.175 ± 0.017 | 0.114 ± 0.025 | 0.873 ± 0.031 | 0.829 ± 0.028 |  | 0.941 ± 0.063 | 0.843 ± 0.019 | 0.599 ± 0.051 | 0.38 ± 0.011 |  |
| HMT3552 BREAST | 1.04 ± 0.012 | 1.11 ± 0.054 | 1.11 ± 0.062 | 1.11 ± 0.032 | 0.458 ± 0.03 | 0.295 ± 0.021 | 0.154 ± 0.008 | 0.108 ± 0.0046 |  |  |  | 1.17 |  | 0.393 | 0.211 |  |
| HS57T BREAST | 0.977 ± 0.059 | 0.977 ± 0.069 | 1.02 ± 0.064 | 1.01 ± 0.07 | 0.783 ± 0.093 | 0.523 ± 0.021 | 0.139 ± 0.015 | 0.106 ± 0.0065 | 0.904 ± 0.058 |  |  | 0.971 ± 0.04 | 0.926 ± 0.06 | 0.568 ± 0.016 | 0.492 ± 0.021 | 0.98 ± 0.027 |
| HS578T BREAST | 0.822 ± 0.14 | 0.96 ± 0.14 | 0.898 ± 0.05 | 0.957 ± 0.11 | 0.63 ± 0.021 | 0.494 ± 0.037 | 0.342 ± 0.04 | 0.326 ± 0.057 |  | 0.827 ± 0.12 | 0.845 ± 0.063 | 0.936 ± 0.1 | 0.85 ± 0.1 | 0.552 ± 0.13 | 0.563 ± 0.11 | 0.959 ± 0.16 |
